Earlier results in paper PMC5852599, “Microfluidic Devices for Drug Delivery Systems and Drug Screening” (Genes, 2018).

Tested on: breast cancer cells (Her-2)
Parameters: method as in PMID 20237849
Settings: 3D tumor spheroid in alginate hydrogel, compared to 2D cell culture

COc1cccc2c1C(=O)c1c(O)c3c(c(O)c1C2=O)C[C@@](O)(C(=O)CO)C[C@@H]3O[C@H]1C[C@H](N)[C@H](O)[C@H](C)O1 [doxorubicin]
effectiveness on cell viability and proliferation: lower effectiveness
